Test results: US20260250257A1, “ANTIBACTERIAL AND SYNERGISTIC ACTIVE COMPOUND AND USE THEREOF” (EAST CHINA UNIVERSITY OF SCIENCE AND TECHNOLOGY, priority 2023, published 2026)
≈ marks a conversion by molar mass, not a printed value.

Key:
Assay type in all cases: cell-based
[1] = tested on: ATCC13883 strain (Klebsiella pneumoniae); experiment: Checkerboard antibacterial synergistic activity test with polymyxin E (FIC); parameters: key: FIC≤0.5 synergy; 0.5–1 additive; 1–2 indifferent; ≥2 antagonism; conditions: combined with polymyxin E
Summary of the method: (§1)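 Checkerboard in MH broth: colistin dilutions 16→0.015 μg/ml × test drug 256→4 μg/ml (concentrations before adding inoculum); drug mix plus bacteria, 37° C., 16 h. FIC cut-offs: ≤0.5 synergy; 0.5–1 additive; 1–2 indifferent; ≥2 antagonism.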

[2] = tested on: ATCC19606 strain (Acinetobacter baumannii); experiment: as above; parameters: key: FIC≤0.5 synergy; 0.5–1 additive; 1–2 indifferent; ≥2 antagonism; conditions: combined with polymyxin E
Summary of the method: as §1

[3] = tested on: ATCC25922 strain (Escherichia coli); experiment: as above; parameters: key: FIC≤0.5 synergy; 0.5–1 additive; 1–2 indifferent; ≥2 antagonism; conditions: combined with polymyxin E
Summary of the method: as §1

[4] = tested on: ATCC9027 strain (Pseudomonas aeruginosa); experiment: as above; parameters: key: FIC≤0.5 synergy; 0.5–1 additive; 1–2 indifferent; ≥2 antagonism; conditions: combined with polymyxin E
Summary of the method: as §1

[5] = tested on: ATCC13883 strain (Klebsiella pneumoniae); experiment: Broth microdilution, antibacterial activity of the compound used alone; conditions: for MIC: read-out: Antibacterial activity of the compound of Formula I, ATCC13883
Description: (§2) The broth microdilution method was used to test the antibacterial effects of the compounds of the present invention against various Gram-negative bacterial strains when used alone.

[6] = tested on: ATCC19606 strain (Acinetobacter baumannii); experiment: as above; conditions: for MIC: read-out: Antibacterial activity of the compound of Formula I, ATCC19606
Description: as §2

[7] = tested on: ATCC25922 strain (Escherichia coli); experiment: as above; conditions: for MIC: read-out: Antibacterial activity of the compound of Formula I, ATCC25922
Description: as §2

[8] = tested on: ATCC9027 strain (Pseudomonas aeruginosa); experiment: as above; conditions: for MIC: read-out: Antibacterial activity of the compound of Formula I, ATCC9027
Description: as §2

| SMILES | Synergistic activity (FIC value) ATCC13883 [1] | Synergistic activity (FIC value) ATCC19606 [2] | Synergistic activity (FIC value) ATCC25922 [3] | Synergistic activity (FIC value) ATCC9027 [4] | Antibacterial activity of the compound of Formula I, ATCC13883 [5] [µg/mL] | Antibacterial activity of the compound of Formula I, ATCC19606 [6] [µg/mL] | Antibacterial activity of the compound of Formula I, ATCC25922 [7] [µg/mL] | Antibacterial activity of the compound of Formula I, ATCC9027 [8] [µg/mL] | MIC [5] [µg/mL] | MIC [6] [µg/mL] | MIC [7] [µg/mL] | MIC [8] [µg/mL] |
| --- | --- | --- | --- | --- | --- | --- | --- | --- | --- | --- | --- | --- |
| Cc1oc(N=C(N)N)nc1-c1cccc(C#N)c1-c1cccs1 [Compound I-79] | 0.52 | 0.52 | 0.63 | 1.25 | 256 | 256 | 256 | 256 |  |  |  |  |
| NC(N)=Nc1nc(-c2c(F)cccc2-c2nccs2)cs1 [Compound I-80] | 0.52 | 0.52 | 0.63 | 1.25 | 256 | 256 | 256 | 256 |  |  |  |  |
| Cc1ccccc1Oc1ccccc1-c1csc(N=C(N)N)n1 [Compound I-81] | 0.09 | 0.31 | 0.14 | 0.06 | 256 | 256 | 256 | 256 |  |  |  |  |
| COc1ccc(Oc2ccccc2-c2csc(N=C(N)N)n2)c(C)c1 [Compound I-83] | 0.09 | 0.63 | 0.27 | 0.04 | 256 | 256 | 256 | 256 |  |  |  |  |
| NC(N)=Nc1nc(-c2ccccc2Oc2ccccc2Cl)cs1 [Compound I-84] | 0.09 | 0.63 | 0.27 | 0.04 | 256 | 256 | 256 | 256 |  |  |  |  |
| NC(N)=Nc1nc(-c2ccccc2Oc2ccc(Cl)cc2Cl)cs1 [Compound I-85] | 0.19 | 0.04 | 0.26 | 0.52 |  |  |  |  | 256 (≈ 675 µM) | 256 (≈ 675 µM) | 256 (≈ 675 µM) | 256 (≈ 675 µM) |
| NC(N)=Nc1nc(-c2ccccc2Oc2ccccc2I)cs1 [Compound I-86] | 0.19 | 0.38 | 0.04 | 0.04 |  |  |  |  | 256 (≈ 587 µM) | 256 (≈ 587 µM) | 256 (≈ 587 µM) | 256 (≈ 587 µM) |
| NC(N)=Nc1nc(-c2ccccc2Oc2ccc(I)cc2I)cs1 [Compound I-87] | 0.16 | 0.03 | 0.18 | 0.28 | 256 | 256 | 256 | 256 |  |  |  |  |
| COc1ccc(Oc2ccccc2-c2csc(N=C(N)N)n2)c(OC)c1 [Compound I-88] | 0.13 | 0.04 | 0.2 | 0.28 | 256 | 256 | 256 | 256 |  |  |  |  |
| Cc1sc(N=C(N)N)nc1-c1ccc(Cl)cc1Oc1ccc(Cl)cc1Cl [Compound I-89] | 0.13 | 0.02 | 0.15 | 0.18 | 256 | 256 | 256 | 256 |  |  |  |  |
| NC(N)=Nc1nc(-c2ccc(F)cc2Oc2ccc(Cl)cc2Cl)c(Cl)s1 [Compound I-90] | 0.13 | 0.03 | 0.15 | 0.18 | 256 | 256 | 256 | 256 |  |  |  |  |
| Cc1ccccc1Oc1cccc(-c2csc(N=C(N)N)n2)c1 [Compound I-91] | 0.19 | 0.04 | 0.26 | 0.52 | 128 | 256 | 128 | 64 |  |  |  |  |
| Cc1ccc(Oc2cccc(-c3coc(N=C(N)N)n3)c2)c(C)c1 [Compound I-92] | 0.19 | 0.38 | 0.04 | 0.04 | 256 | 256 | 256 | 256 |  |  |  |  |
| COc1ccc(Oc2cccc(-c3c[nH]c(N=C(N)N)n3)c2)c(C)c1 [Compound I-93] | 0.16 | 0.03 | 0.18 | 0.28 | 256 | 256 | 256 | 256 |  |  |  |  |
| NC(N)=Nc1nc(-c2cccc(Oc3ccccc3Cl)c2)cs1 [Compound I-94] | 0.19 | 0.04 | 0.26 | 0.52 | 256 | 256 | 256 | 256 |  |  |  |  |
